The values that follow come from PubChem BioAssay (NCI).

Some test systems named below: EKVX NSCLC; HCT-116 colon; K-562 leukemia; NCI-H23 lung; OVCAR-3 ovarian; SF-268 CNS; UACC-62 melanoma; UO-31 renal; DU-145 prostate; HOP-92 NSCLC.
Test in all cases: NCI anticancer screen, dose series, 48 h

Where “and” joins values, the source holds several entries; their conditions need not be identical. Identical values can stand only once.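 Dose response: 5 concentrations. Exposure: 48 h. Format: 96-well plates. Endpoint: linear interpolation; highest concentration if not reached. The concentration for 50% growth inhibition is given as GI50. TGI denotes the concentration required for complete inhibition of growth.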

Regarding `CCc1ccccc1NC(=O)/C(N=O)=C(/C)O`, the TGI with EKVX NSCLC, with HCT-116 colon, in the test with K-562 leukemia, in the test on NCI-H23 lung, in the test with OVCAR-3 ovarian and with SF-268 CNS was more than 100 µM throughout. The TGI in the test with UACC-62 melanoma and in the test with UO-31 renal was more than 100 µM in each case.
Consider `CCOc1ccc(N/C(=C(/C(Cl)=C(/Cl)NC(C)(C)C)[N+](=O)[O-])n2nnc3ccccc32)cc1`, for which the TGI is more than 100 µM in the test with EKVX NSCLC; 33.7 µM with HCT-116 colon; more than 100 µM in the test on K-562 leukemia; 55.6 µM with NCI-H23 lung; 72.2 µM in the test with OVCAR-3 ovarian; 42.7 µM with SF-268 CNS. Also, the TGI in the test with UACC-62 melanoma was 65.3 µM; in the test on UO-31 renal, more than 100 µM.
For the molecule `COc1ccc(-c2c(C#N)c(S)n(NS(=O)(=O)c3ccccc3)c(=O)c2C#N)cc1`, the TGI in the test on DU-145 prostate, with HCT-116 colon, in the test on K-562 leukemia, in the test with NCI-H23 lung, with OVCAR-3 ovarian and with SF-268 CNS was more than 100 µM each time. Also, the TGI with UACC-62 melanoma and in the test with UO-31 renal was more than 100 µM each time.
As to `COc1cccc(NC(=O)CC(=O)N2N=C(n3ccc4ccccc43)CC2c2ccccc2)c1` (stereo unspecified), the TGI in the test on EKVX NSCLC, in the test on HCT-116 colon, with HOP-92 NSCLC, in the test with K-562 leukemia, in the test on NCI-H23 lung and in the test with OVCAR-3 ovarian was more than 100 µM in each case. Further, the TGI in the test on SF-268 CNS, in the test on UACC-62 melanoma and in the test with UO-31 renal was more than 100 µM throughout.
Take `N#CNC(=NCCc1c[nH]c2ccccc12)Oc1ccccc1`: the TGI in the test on EKVX NSCLC, in the test on HCT-116 colon, with K-562 leukemia, with NCI-H23 lung, with OVCAR-3 ovarian and in the test with SF-268 CNS was more than 100 µM each time. Moreover, the TGI in the test on UACC-62 melanoma and in the test with UO-31 renal was more than 100 µM in each case.
Consider `CCN1CN(c2ccccc2)C2(CCN(CC(CC3OCCO3)c3ccc(F)cc3)CC2)C1=O` (stereo unspecified), for which the TGI is more than 100 µM in the test with EKVX NSCLC; 11 µM in the test on HCT-116 colon; 10.3 µM in the test with HOP-92 NSCLC; more than 87.6 µM in the test on K-562 leukemia; more than 57.3 µM in the test on NCI-H23 lung; 50.7 µM with OVCAR-3 ovarian. Further, the figures for the TGI in the test with SF-268 CNS, in the test on UACC-62 melanoma and in the test on UO-31 renal were 38.2 µM, 47.1 µM and more than 74.8 µM, respectively.
For the molecule `NC(=O)NC12CC3CC(CC(F)(C3)C1)C2`, the TGI with EKVX NSCLC, with HCT-116 colon, in the test on HOP-92 NSCLC, with K-562 leukemia, in the test on NCI-H23 lung and with OVCAR-3 ovarian was more than 100 µM throughout. In addition, the TGI in the test with UACC-62 melanoma and in the test on UO-31 renal was more than 100 µM each time.
In the case of `O=C1c2ccccc2N2Oc3ccccc3C12c1ccccc1` (stereo unspecified), the TGI in the test on EKVX NSCLC, with HCT-116 colon, in the test with HOP-92 NSCLC, with K-562 leukemia, in the test with NCI-H23 lung and in the test on SF-268 CNS was more than 100 µM each time. Also, the TGI with UACC-62 melanoma and in the test on UO-31 renal was more than 100 µM in each case.
For `N#Cc1c(O)c(/C=N/c2ncccn2)c(=O)n2c1[nH]c1ccccc12`, the TGI in the test with EKVX NSCLC, in the test on HCT-116 colon, in the test with HOP-92 NSCLC, in the test on K-562 leukemia, in the test on NCI-H23 lung and in the test on OVCAR-3 ovarian was more than 100 µM throughout. The TGI in the test on SF-268 CNS and with UO-31 renal was more than 100 µM each time.
Turning to `COc1cc(C2c3cc4c(cc3[C@@H](NCCN3CCOCC3)C3COC(=O)[C@H]23)OCO4)cc(OC)c1O` (stereo partly specified), the TGI was 54.4 µM and > 17.5 µM with EKVX NSCLC; 15.8 µM and > 17.5 µM in the test on HCT-116 colon; 4.73 µM and 10.4 µM in the test with HOP-92 NSCLC; more than 75 µM in the test on K-562 leukemia; 4.89 µM and 7.21 µM with NCI-H23 lung; 21.5 µM and 14.3 µM in the test with OVCAR-3 ovarian. The TGI in the test with SF-268 CNS is 10.2 µM; in the test with UACC-62 melanoma, 4.99 µM and 6.06 µM; with UO-31 renal, 5.13 µM and 6.38 µM. Also, the GI50 in the test with NCI-H23 lung was 1170 nM and 2450 nM.
For the molecule `CCc1cccc(C)c1NC(=O)C1=C(C)NC(C)=C(C(=O)Nc2c(C)cccc2CC)C1c1ccc2c(c1)OCO2`, the TGI stood at 58.6 µM in the test on EKVX NSCLC; 59.3 µM in the test on HOP-92 NSCLC; 92.3 µM in the test with K-562 leukemia; 31.4 µM with NCI-H23 lung; 39.8 µM in the test with OVCAR-3 ovarian; 59.5 µM in the test on SF-268 CNS. In addition, the TGI in the test with UO-31 renal was determined as 28.7 µM.
Regarding `CC(Oc1ccc(OCC2CCCCC2)cc1)C(=O)NCc1ccco1` (stereo unspecified), the TGI was 76.3 µM in the test on HCT-116 colon; more than 100 µM in the test on K-562 leukemia; more than 100 µM in the test with OVCAR-3 ovarian; more than 100 µM with SF-268 CNS; more than 100 µM in the test on UACC-62 melanoma; 92.3 µM with UO-31 renal.
Turning to `CCOc1ccc(NC(=O)C(=O)C(C(=O)c2ccc3ccccc3c2)C2OC(=O)c3ccccc32)cc1` (stereo unspecified), the TGI in the test with EKVX NSCLC was more than 100 µM; in the test with HCT-116 colon it was 35.1 µM; with HOP-92 NSCLC, 68.3 µM; in the test with K-562 leukemia, more than 100 µM; with NCI-H23 lung it was 33 µM; in the test on OVCAR-3 ovarian, 86.8 µM. Also, the results for the TGI in the test on SF-268 CNS, in the test with UACC-62 melanoma and in the test on UO-31 renal were 62.4 µM, 27.2 µM and 34 µM, respectively.
On to `COc1ccc(CC2(Cc3ccc(OC)cc3)CCOC2=O)cc1`, for which the TGI in the test with EKVX NSCLC, in the test with HCT-116 colon, in the test on HOP-92 NSCLC, with K-562 leukemia, with NCI-H23 lung and with OVCAR-3 ovarian was more than 100 µM throughout. In addition, the TGI in the test with SF-268 CNS, with UACC-62 melanoma and in the test on UO-31 renal was more than 100 µM in each case.
On to `COc1cc2c(cc1OC)[C@@H](Nc1ccc(F)cc1)C1COC(=O)[C@@H]1C2c1cc(OC)c(O)c(OC)c1` (stereo partly specified), for which the TGI is more than 100 µM in the test on EKVX NSCLC; more than 100 µM with HCT-116 colon; 11.8 µM in the test on K-562 leukemia; 18.6 µM with NCI-H23 lung; more than 100 µM in the test on OVCAR-3 ovarian; more than 67.1 µM with SF-268 CNS. The TGI with UACC-62 melanoma turned out to be 19.9 µM; with UO-31 renal it was 15.4 µM.
As to `CCN(CC)c1oc(N(CC)CC)c(C(=O)Nc2ccccn2)c(=O)c1C(C)=O`, the TGI in the test with EKVX NSCLC, in the test with HCT-116 colon, with HOP-92 NSCLC, in the test with K-562 leukemia, in the test with NCI-H23 lung and with OVCAR-3 ovarian was more than 100 µM throughout. The TGI in the test with SF-268 CNS, in the test on UACC-62 melanoma and in the test with UO-31 renal was more than 100 µM in each case.
With `COc1ccc2nc3cc(Cl)ccc3c(SCC(=O)Nc3ccccc3-c3ccccc3NC(=O)CSc3c4ccc(Cl)cc4nc4ccc(OC)cc34)c2c1`, the TGI in the test on EKVX NSCLC, in the test with HCT-116 colon, with HOP-92 NSCLC, in the test on K-562 leukemia, with NCI-H23 lung and with OVCAR-3 ovarian was more than 100 µM throughout. Further, the TGI with SF-268 CNS, in the test with UACC-62 melanoma and in the test with UO-31 renal was more than 100 µM throughout.
On to `Cc1cnc2[nH]c(-c3ccc4ccccc4c3)cc(=O)c2c1`, for which the TGI with DU-145 prostate was 27.9 µM; in the test on HCT-116 colon it was 14.5 µM; in the test on OVCAR-3 ovarian, 10.6 µM; in the test on SF-268 CNS, more than 100 µM; in the test on UACC-62 melanoma, more than 100 µM; in the test on UO-31 renal, more than 100 µM. The results for the GI50 in the test with HCT-116 colon and in the test with OVCAR-3 ovarian were 465 nM and 352 nM, respectively.
As to `COC1=C(C)C(=O)c2c(cc3c(c2O)C(C)(CCC=C(C)C)C(C)O3)C1=O` (stereo unspecified), the TGI in the test with EKVX NSCLC was more than 100 µM; in the test with HCT-116 colon it was more than 100 µM; in the test with HOP-92 NSCLC, more than 100 µM; in the test on K-562 leukemia, more than 100 µM; in the test with NCI-H23 lung, 68.5 µM; in the test with OVCAR-3 ovarian, more than 100 µM. Further, the TGI in the test with SF-268 CNS is more than 100 µM; with UACC-62 melanoma, 97 µM; with UO-31 renal, more than 100 µM.
On to `CN1CC2CN(Cc3ccccc3)CCN2c2cccnc21` (stereo unspecified), for which the TGI with EKVX NSCLC is more than 100 µM; in the test with HCT-116 colon, 37.7 µM; with HOP-92 NSCLC, more than 100 µM; in the test with K-562 leukemia, more than 100 µM; in the test on NCI-H23 lung it was more than 100 µM; in the test on OVCAR-3 ovarian it was more than 100 µM. Besides, the TGI in the test with SF-268 CNS, in the test on UACC-62 melanoma and with UO-31 renal was more than 100 µM throughout.
As to `CC(=O)O[C@H]1CCC2[C@@H]3CCC4c5nonc5CC[C@]4(C)C3CC[C@@]21C` (stereo partly specified), the GI50 with EKVX NSCLC is more than 100 µM; in the test with HCT-116 colon it was more than 100000 nM; in the test on HOP-92 NSCLC, more than 100 µM; in the test on K-562 leukemia, more than 100 µM; in the test with UACC-62 melanoma, more than 100 µM. The TGI is more than 100 µM with EKVX NSCLC; more than 100 µM in the test with HCT-116 colon; more than 100 µM in the test with HOP-92 NSCLC; more than 100 µM in the test with K-562 leukemia; more than 10 µM in the test on NCI-H23 lung; more than 10 µM in the test with SF-268 CNS. The values for the TGI in the test on UACC-62 melanoma and in the test with UO-31 renal were more than 100 µM and more than 10 µM, respectively.
Regarding `N#Cc1c(-c2ccccc2)c(CN2CCCCC2)c(=O)n2c1[nH]c1ccccc12`, the TGI was more than 100 µM in the test on HCT-116 colon; 60.9 µM in the test with K-562 leukemia; more than 100 µM in the test with NCI-H23 lung; 58.3 µM in the test with OVCAR-3 ovarian; more than 100 µM in the test with SF-268 CNS; more than 100 µM in the test with UO-31 renal.
